The values below come from patent US8568736B2, “Polypeptide derivatives of parathyroid hormone (PTH)” (The General Hospital Corporation, priority 1999, dated 2013).

No end group written: not given here.

One assay concerns the target T1, hPTH-2 Receptor (Homo sapiens, UniProt P49190).
T1 construct: expressed in transfected cells; host or cells: LLC-PK1 porcine kidney cells (clone given as hPR2-20, hPR2-22, LLC-P2R-22 or P2R-22)
The assay is described as follows: cAMP stimulation in LLC-P2R-22 cells (LLC-PK1 stably transfected with hPTH-2 receptor). It is filed as cell-based. The settings on record: LLC-P2R-22 cells (hPTH-2 Receptor). The source says: (§1) Stably transfected derivatives of the porcine kidney cell line LLC-PK1, HKRK-B7 (Takasu, H., et al., J. Bone Miner. Res. 14:11-20 (1999)) and hPR2-20, express the human PTH-1 and human PTH-2 receptors respectively. The HKRK-B7 LLC-PK1 cell line expresses the hPTH-1 receptor at ˜1×10^6 receptors/cell (Takasu, H., et al., J. Bone Miner. Res. 14:11-20 (1999)), and the hPR2-22 LLC-PK1 cell line expresses the hPTH-2 receptor at ˜0.8×10^6 receptors/cell (provided by H. Takasu and F. R. Bringhurst, Endocrine Unit, Massachusetts General Hospital).
(§2) Stimulation of cells with peptide analogs was performed in 24-well plates. Cells were rinsed with 0.5 mL of binding buffer and treated with 200 μL of cAMP assay buffer (Dulbecco's modified Eagle's medium containing 2 mM 3-isobutyl-1-methylxanthine, 1 mg/mL bovine serum albumin, 35 mM Hepes-NaOH, pH 7.4) and 100 μL of binding buffer containing varying amounts of peptide analog (final volume=300 μL). The medium was removed after incubation for 1 h at room temperature, and the cells were frozen (−80° C.), lysed with 0.5 mL 50 mM HCl, and refrozen (−80° C.). The cAMP content of the diluted lysate was determined by radioimmunoassay. Where possible, cAMP EC50 and Maximum response values were determined using nonlinear regression (see below).
(§3) Intracellular cAMP accumulation may be measured as described by Abou-Samra et al., J. Biol. Chem. 262:1129, 1986) or other methods known to those of skill in the art. Intracellular cAMP is extracted by thawing the cells in 1 ml of 50 mM HCl and analyzed by a specific radioimmunoassay using an anti-cAMP antibody (e.g., Sigma, St. Louis, Mo.). A cAMP analog (2′-O-monosuccinyl-adenosine 3′:5′-cyclic monophosphate tyrosyl methyl ester, obtained from Sigma) which is used as a tracer for cAMP is iodinated by the chloramine T method. Free iodine is removed by adsorbing the iodinated cAMP analog onto a C18 Sep-pak cartridge (Waters, Milford, Mass.). After washing with dH2O, the iodinated cAMP analog is eluted from the Sep-pak Cartridge with 40% acetonitrille (ACN) and 0.1% trifluoroacetic acid (TFA). The iodinated cAMP analog is lyophilized, reconstituted in 1 ml 0.1% TFA, and injected into a C18 reverse phase HPLC column (Waters). The column is equilibrated with 10% ACN in 0.1% TFA, and eluted with gradient of 10-30% ACN in 0.1% TFA. This allows separation of the mono-iodinated cAMP analog from the non-iodinated cAMP analog. The tracer is stable for up to 4 months when stored at −20° C. The standard used for the assay, adenosine 3′:5′-cyclic monophosphate, is purchased from Sigma. Samples (1-10 µl of HCl extracts) or standards (0.04-100 fmol/tube) are diluted in 50 mM Na-acetate (pH 5.5), and acetylated with 10 μl of mixture of triethylamine and acetic anhydride (2:1 vol:vol). After acetylation, cAMP antiserum (100 μl) is added from a stock solution (1:4000) made in PBS (pH 7.4), 5 mM EDTA and 1% normal rabbit serum. The tracer is diluted in PBS (pH 7.4) with 0.1% BSA, and added (20,000 cpm/tube). The assay is incubated at 4° C. overnight. The bound tracer is precipitated by adding 100 μl of goat anti-rabbit antiserum (1:20 in PBS) and 1 ml of 7% polyethyleneglycol (MW 5000-6000), centrifuging at 2000 rpm for 30 min. at 4° C. The supernatant is removed and the bound radioactivity is counted in a gamma-counter (Micromedic). To compute the cAMP data, logit calculations were performed in Excel spreadsheets. Typically, the assay sensitivity is 0.1 fmol/tube, and the standard concentration that displaces 50% of tracer is 5 fmol/tube.
(§4) All calculations were performed using Microsoft Excel. Nonlinear regression analysis of cAMP stimulation data was performed using parameters, defined as the Minimum, Maximum, Emax, midpoint (EC50), and slope of the response curve. The predicted response (yp) for a given dose (x) of peptide was calculated using the following equation: yp=Min+[(Max−Min)/(1+(EC50/x)^slope)]. […]

In assay [1] the target is T2, PTH-1 receptor (Homo sapiens, UniProt Q03431).
T2 sequence (Q03431 27-593): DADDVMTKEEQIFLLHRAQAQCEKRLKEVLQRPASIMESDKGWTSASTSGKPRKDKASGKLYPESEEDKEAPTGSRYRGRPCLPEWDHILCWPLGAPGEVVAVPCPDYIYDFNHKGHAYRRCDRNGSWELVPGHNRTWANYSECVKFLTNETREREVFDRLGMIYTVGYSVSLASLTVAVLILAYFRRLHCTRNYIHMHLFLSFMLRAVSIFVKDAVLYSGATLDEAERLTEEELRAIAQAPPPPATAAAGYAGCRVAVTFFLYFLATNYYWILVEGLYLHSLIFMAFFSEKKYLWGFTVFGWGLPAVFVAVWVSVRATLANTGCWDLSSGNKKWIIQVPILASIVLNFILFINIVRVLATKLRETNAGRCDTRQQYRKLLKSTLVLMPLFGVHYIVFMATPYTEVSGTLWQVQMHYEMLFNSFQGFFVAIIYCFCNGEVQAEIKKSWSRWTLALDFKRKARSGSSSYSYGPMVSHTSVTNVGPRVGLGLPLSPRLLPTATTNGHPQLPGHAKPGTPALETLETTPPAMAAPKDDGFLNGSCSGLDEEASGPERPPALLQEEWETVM
In words: cAMP stimulation in HKRK-B7 cells (LLC-PK1 stably transfected with hPTH-1 receptor). It is filed as cell-based. Details: expressed in transfected cells; host or cells: LLC-PK1 porcine kidney cells, clone HKRK-B7. The following applies: for cAMP signaling activity (in words) / Emax: HKRK-B7 cells; for cAMP signaling activity (in words): dose-response; for Emax: Emax constrained to ±1 SD of rPTH(1-34) response at 100 nM.
Description: as §1, §2, §3, §4

Assay [2] has as its target T3, rat PTH-1 receptor (endogenous, ROS 17/2.8 cells) (Rattus norvegicus, UniProt P25961).
T3 construct: The rat osteoblastic cell line ROS 17/2.8; endogenous in cells; host or cells: ROS 17/2.8 rat osteoblastic cells
T3 sequence (P25961 27-591): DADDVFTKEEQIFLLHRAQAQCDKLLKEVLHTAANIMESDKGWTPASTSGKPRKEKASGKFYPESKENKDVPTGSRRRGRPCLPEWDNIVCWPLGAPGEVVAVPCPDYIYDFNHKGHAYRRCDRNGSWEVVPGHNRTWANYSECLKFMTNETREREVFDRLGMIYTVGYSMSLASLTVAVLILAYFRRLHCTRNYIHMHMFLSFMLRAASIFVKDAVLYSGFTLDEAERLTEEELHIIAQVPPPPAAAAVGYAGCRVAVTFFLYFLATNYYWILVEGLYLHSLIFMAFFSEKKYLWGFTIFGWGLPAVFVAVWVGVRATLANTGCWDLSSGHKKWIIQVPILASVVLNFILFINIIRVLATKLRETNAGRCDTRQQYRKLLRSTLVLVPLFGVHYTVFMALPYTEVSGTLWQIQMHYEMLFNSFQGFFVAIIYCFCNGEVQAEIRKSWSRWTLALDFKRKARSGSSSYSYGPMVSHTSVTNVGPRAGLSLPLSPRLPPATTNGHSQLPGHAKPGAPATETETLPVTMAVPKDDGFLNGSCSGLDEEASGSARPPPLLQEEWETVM
The assay is described as follows: cAMP response in osteoblastic ROS 17/2.8 cells. It is filed as cell-based. The following applies: ROS 17/2.8 cells. The protocol:
The rat osteoblastic cell line ROS 17/2.8 (Majeska, R. J., et al, Endocrinology 107:1494-1503 (1980)) expresses endogenous PTH-1 receptors at levels of 80,000 per cell and the human osteoblastic cell line, SAOS-2, express endogenous PTH-1 receptors at levels of ˜30,000 per cell.
as §2
All calculations were performed using Microsoft Excel. Nonlinear regression analysis of cAMP stimulation data was performed using parameters, defined as the Minimum, Maximum, Emax, midpoint (EC50), and slope of the response curve. The predicted response (yp) for a given dose (x) of peptide was calculated using the following equation: yp=Min+[(Max−Min)/(1+(EC50/x)^slope)]. The initial parameter values were estimated from the primary data, and the Excel “Solver function” was then used to vary the four parameters in order to minimize the differences between the predicted and actual responses (least-squares method) (Bowen, W., & Jerman, J., Trends in Pharmacol. Sci. 16:413-417 (1995)). The statistical significance between two data sets was determined using a one-tailed Student's t-test, assuming unequal variances for the two sets.

In assay [3] the target is T2, PTH-1 receptor. Further details: expressed in transfected cells; host or cells: LLC-PK1 porcine kidney cells, clone HKRK-B7. The settings on record: HKRK-B7 cells; Luck et al. 1999; cited from earlier work.
Assay [4] deals with truncated PTH-1 receptor rP1R-ΔNt. The settings on record: truncated rat PTH receptor vs intact rPTH-1 receptor; Luck et al. 1999; cited from earlier work.
For assay [5] the following is noted: subcutaneous, in combination with oral estrogen, postmenopausal osteoporosis; cited from earlier work.
For assay [6], the target named is T2, PTH-1 receptor. The following applies: literature; cited from earlier work.
Assay [7] concerns the target T4, cloned rat PTH-1 receptor (Rattus norvegicus, UniProt P25961).
T4 construct: host or cells: CHO cells
T4 sequence (P25961 27-591): T3 sequence (P25961 27-591)
The following applies: CHO cells, Azurani 1996; cited from earlier work.

The subject of the next assay is rat renal membranes. The settings on record: Rosenblatt 1981; cited from earlier work.

T1 sequence (P49190 25-550): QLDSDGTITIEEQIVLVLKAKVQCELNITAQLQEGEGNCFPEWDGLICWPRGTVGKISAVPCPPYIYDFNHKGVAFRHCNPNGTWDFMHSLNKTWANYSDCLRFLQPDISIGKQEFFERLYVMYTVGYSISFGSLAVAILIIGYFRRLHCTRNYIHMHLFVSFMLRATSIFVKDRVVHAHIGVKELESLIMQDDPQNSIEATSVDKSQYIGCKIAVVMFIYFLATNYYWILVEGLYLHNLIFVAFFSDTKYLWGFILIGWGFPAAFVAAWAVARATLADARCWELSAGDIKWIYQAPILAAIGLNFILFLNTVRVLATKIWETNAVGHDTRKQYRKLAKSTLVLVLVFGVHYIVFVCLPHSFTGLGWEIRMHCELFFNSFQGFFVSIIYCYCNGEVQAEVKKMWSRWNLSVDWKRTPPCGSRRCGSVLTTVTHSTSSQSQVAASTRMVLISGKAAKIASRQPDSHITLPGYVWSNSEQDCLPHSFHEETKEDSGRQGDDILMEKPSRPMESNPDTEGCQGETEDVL

“AVAEIQLMHARA-NH2 [compound 5, AlaValAlaGluIleGlnLeuMetHisAlaArgAla-amide]” gave an Emax on hPTH-2 Receptor of 501 picomole/well. At PTH-1 receptor [1], the “cAMP signaling activity (in words)” value is given as “signaling activity was readily observed” and the Emax was 238 ± 9 picomole/well.

For the substance “AVAEIQLMHARAK-NH2 [compound 4, AlaValAlaGluIleGlnLeuMetHisAlaArgAlaLys-amide]”, the Emax on hPTH-2 Receptor is reported as 501 picomole/well. Moreover, on PTH-1 receptor [1], the “cAMP signaling activity (in words)” value is recorded as “signaling activity was readily observed” and the Emax amounted to 239 ± 7 picomole/well.

With “AVAEIQLMHARAKW-NH2 [Peptide #2, AlaValAlaGluIleGlnLeuMetHisAlaArgAlaLysTrp-amide]”, the Emax in assay [2] came to 382 picomole/well; on PTH-1 receptor [1], 262 ± 9 picomole/well. Further, the “fold more potent than native PTH(1-14)” value on PTH-1 receptor [1] (LLC-PK1 cells stably expressing hPTH-1 receptor, cAMP) turned out to be 220 fold.

On to “AVAEIQLMHQRAKH-NH2 [compound 3, AlaValAlaGluIleGlnLeuMetHisGlnArgAlaLysHis-amide]”, for which the Emax on PTH-1 receptor [1] is 235 ± 3 picomole/well.

As to “PTH(1-9) (AVSEIQLMH-NH2; UniProt P04089 32-40, looked up, fragment) [native rat PTH fragment analog]”, the “cAMP response of native rat PTH fragments (in words)” value (“cAMP response … (in words)” for short) in the assay with PTH-1 receptor [3] is reported as “little or no cAMP response”.

With “PTH(1-10) (AVSEIQLMHN-NH2; UniProt P04089 32-41, looked up, fragment) [native rat PTH fragment analog]”, in the assay with PTH-1 receptor [3], the “cAMP response … (in words)” value is “little or no cAMP response”.

As for “PTH(1-11) (AVSEIQLMHNL-NH2; UniProt P04089 32-42, looked up, fragment) [native rat PTH fragment analog]”, the “cAMP response … (in words)” value in the assay with PTH-1 receptor [3] is recorded as “little or no cAMP response”.

For the substance “PTH(1-12) (AVSEIQLMHNLG-NH2; UniProt P04089 32-43, looked up, fragment) [native rat PTH fragment analog]”, in the assay with PTH-1 receptor [3], the “cAMP response … (in words)” value was “little or no cAMP response”.

For “PTH(1-13) (AVSEIQLMHNLGK-NH2; UniProt P04089 32-44, looked up, fragment) [native rat PTH fragment analog]”, in the assay with PTH-1 receptor [3], the “cAMP response … (in words)” value is reported as “little or no cAMP response”.

With PTH(1-34), the “fold weaker with the truncated receptor than with the intact receptor” value in assay [4] is reported as 1000 fold. For the same substance, the bone density entry in [5] is reported as “increases in bone density”.

Turning to PTH(15-34), the cAMP response result with PTH-1 receptor [6] is “inactive”.

Regarding “PTHrP(1-16) (AVSEHQLLHDKGKSIQ; Parathyroid hormone-related protein; UniProt P12272 37-52, looked up, fragment) [short NH2-terminal PTHrP peptide from the literature]”, in [7], the AC activity entry was “inactive”.

As to [A3,Q10]rPTH(1-10) (AVAEIQLMHQ-NH2), the “cAMP signaling activity (in words)” value with PTH-1 receptor [1] was “elicited some activity”.

“bPTH(1-12) (AVSEIQFMHNLG; Parathyroid hormone; UniProt P01268 32-43, looked up, fragment) [short NH2-terminal PTH peptide from the literature]”: the adenyl cyclase activity entry with rat renal membranes is “inactive”.
